Experimental data from patent publication US20050065140A1, “Serotonine reuptake inhibitor” (priority 2001, published 2005).

Columns and labels:
[1] = biological target: T1, [^3H]paroxetine binding (serotonin reuptake), cerebral cortex membrane preparation (Rattus norvegicus, UniProt P31652); assay: Screening test using [^3H]paroxetine binding (Test Example 1); settings: [^3H]paroxetine 0.15 nM, test concentration not given
T1 construct: 790 μl of the cerebral cortex membrane preparation (150 μg/tube in terms of protein); from tissue; host or cells: rat cerebral cortex membrane preparation
T1 sequence (P31652 whole entry): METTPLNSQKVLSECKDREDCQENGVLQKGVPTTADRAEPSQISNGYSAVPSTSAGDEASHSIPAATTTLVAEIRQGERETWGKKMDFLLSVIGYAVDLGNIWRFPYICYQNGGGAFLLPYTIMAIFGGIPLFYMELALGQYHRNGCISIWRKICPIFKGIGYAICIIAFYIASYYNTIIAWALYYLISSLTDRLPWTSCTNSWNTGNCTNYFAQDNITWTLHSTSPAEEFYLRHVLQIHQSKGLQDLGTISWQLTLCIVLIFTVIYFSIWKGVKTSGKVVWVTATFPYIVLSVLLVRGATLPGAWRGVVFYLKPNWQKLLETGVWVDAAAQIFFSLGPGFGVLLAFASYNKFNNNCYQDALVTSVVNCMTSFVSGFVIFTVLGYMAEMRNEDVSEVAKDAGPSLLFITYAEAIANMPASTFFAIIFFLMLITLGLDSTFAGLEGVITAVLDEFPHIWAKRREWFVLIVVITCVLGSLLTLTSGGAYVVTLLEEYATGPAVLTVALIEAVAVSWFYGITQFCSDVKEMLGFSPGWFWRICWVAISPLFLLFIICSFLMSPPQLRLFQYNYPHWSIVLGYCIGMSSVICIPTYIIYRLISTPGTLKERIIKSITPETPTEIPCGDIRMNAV
Procedure: Screening Test Using [^3H]Paroxetine Binding
The membrane preparation was prepared according to the method^1a) of D'amato et al. In detail, after a male rat was decapitated, the whole brain was immediately removed and the cerebral cortex was dissected therefrom under ice-cooling. A buffer solution (50 mM Tris-HCl (pH=7.4), 120 mM NaCl, 5 mM KCl) was added to the cerebral cortex in an amount of 25 times the wet weight of the cerebral cortex, followed by homogenization in an ice bath by the use of a Teflon-glass homogenizer. The homogenate was centrifuged at 4° C. and 45,000×g for 10 minutes, and the resulting precipitate was dispersed in an ice-cooled buffer solution (50 mM Tris-HCl (pH=7.4), 120 mM NaCl, 5 mM KCl) by the use of Hiscotron™, followed by centrifugation at 4° C. and 45,000×g for 10 minutes. The resulting precipitate was re-suspended and the washing procedure was repeated. The membrane preparation thus obtained was suspended in the same buffer solution as described above, and then subjected to cryopreservation at −80° C.
[^3H]paroxetine binding was measured according to the method^1b) of Habert E et al. In detail, 200 μl of a dilution (final concentration: 0.15 nM) of [^3H]paroxetine with 50 mM Tris-HCl (pH=7.4) buffer containing 120 mM NaCl and 5 mM KCl, 790 μl of the cerebral cortex membrane preparation (150 μg/tube in terms of protein), 10 μl of a solution of a test drug in dimethyl sulfoxide and 1 ml of the above-mentioned buffer solution were mixed to prepare a liquid having a total volume of 2 ml. After this liquid was allowed to react at room temperature for 60 minutes, it was immediately filtered by suction at a low pressure through glass fiber filter. The glass fiber filter was washed 4 times with 4 ml of the same buffer solution as above and then transferred to a glass vial containing 4 ml of ACS-II (Amersham), and the radioactivity remaining on the filter was measured with a liquid scintillation counter.
Non-specific binding of [^3H]paroxetine was defined as the amount of [^3H]paroxetine bound in the presence of 100 μM 5-HT.
(§1) Rate of binding inhibition was calculated by the following equation:
(§2) Rate of binding inhibition (%)=100−100×{[amount of [^3H]paroxetine bound in the presence of test substance]−[amount of [^3H]paroxetine bound in the presence of 100 μM 5-HT]/[amount of [^3H]paroxetine bound in the absence of test substance]−[amount of [^3H]paroxetine bound in the presence of 100 μM 5-HT]}

[2] = biological target: T2, serotonin 1A receptors ([^3H]8-OH-DPAT binding, hippocampus membrane preparation) (Rattus norvegicus, UniProt P19327); assay: [^3H]8-OH-DPAT binding test (Test Example 2); settings: [^3H]8-OH-DPAT 2 nM, test concentration not given
T2 construct: 146 μl of the hippocampus membrane preparation (80 μg/tube in terms of protein); from tissue; host or cells: rat hippocampus membrane preparation
T2 sequence (P19327 1-422): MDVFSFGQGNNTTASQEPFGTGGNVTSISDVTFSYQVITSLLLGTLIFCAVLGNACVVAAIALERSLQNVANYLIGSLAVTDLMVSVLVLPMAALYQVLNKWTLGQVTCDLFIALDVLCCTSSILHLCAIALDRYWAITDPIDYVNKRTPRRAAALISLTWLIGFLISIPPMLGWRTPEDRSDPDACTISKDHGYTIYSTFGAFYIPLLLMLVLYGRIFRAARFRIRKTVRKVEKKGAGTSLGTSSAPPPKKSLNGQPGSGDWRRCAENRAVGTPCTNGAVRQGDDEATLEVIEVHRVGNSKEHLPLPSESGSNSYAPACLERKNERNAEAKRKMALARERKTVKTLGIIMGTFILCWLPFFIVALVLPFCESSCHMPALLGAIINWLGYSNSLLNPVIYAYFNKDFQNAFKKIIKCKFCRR
Procedure: [^3H]8-OH-DPAT Binding Test
The test was carried out according to the method^2 of Hall M. D. et al. After about one week of pre-breeding, a male rat was decapitated and the brain was immediately removed. The hippocampus was dissected from the brain on ice, and 50 mM Tris-HCl (pH=7.4) was added to the hippocampus in an amount of 40 times the wet weight of the hippocampus, followed by homogenization (3 min, 1 stroke/min) in an ice bath by the use of a Teflon-glass homogenizer. Then, the homogenate was centrifuged (4° C.) at 40,000×g for 10 minutes. The resulting precipitate was dispersed in an ice-cooled buffer solution (50 mM Tris-HCl (pH=7.4)) by the use of Hiscotron™, followed by centrifugation (4° C.) at 40,000×g for 10 minutes. Moreover, the resulting precipitate was re-suspended and the washing procedure was repeated once. The precipitate thus obtained was dispersed in an ice-cooled buffer solution (50 mM Tris-HCl (pH=7.4)) by the use of Hiscotron™, and the resulting dispersion was incubated at 37° C. for 1 hour and then centrifuged (4° C.) at 40,000×g for 10 minutes. Furthermore, the resulting precipitate was re-suspended and the washing procedure was repeated once. The membrane preparation thus obtained was suspended in the same buffer solution as described above, and then subjected to cryopreservation at −80° C.
Measurement was carried out by using a liquid for reaction (total volume: 200 μl) obtained by adding 50 μl of [^3H]8-OH-DPAT (final concentration: 2 nM), 4 μl of a solution of a test drug and 146 μl of the hippocampus membrane preparation (80 μg/tube in terms of protein) to a buffer solution containing 50 mM Tris-HCl (pH=7.4) and 4 mM CaCl2. After the liquid for reaction was allowed to react at room temperature for 30 minutes, it was immediately filtered by suction at a low pressure through glass fiber filter. The glass fiber filter was washed twice with 250 μl of a buffer solution and then added to a glass vial containing 4 ml of ACS-II (Amersham), and the radioactivity bound to receptors and remaining on the filter was measured with a liquid scintillation counter. Non-specific binding of [^3H]8-OH-DPAT was defined as the amount of [^3H]8-OH-DPAT bound in the presence of 1 μM 8-OH-DPAT.
as §1
as §2, with “of [^3H]8-OH-DPAT” for “of [^3H]paroxetine”, “of 1” for “of 100”, “μM 8-OH-DPAT]/[amount” for “μM 5-HT]/[amount”, “μM 8-OH-DPAT]}” for “μM 5-HT]}”

SMILES | Rate of inhibition of [^3H]paroxetine binding (%) [1] [%] | Rate of inhibition of [^3H]8-OH-DPAT binding (%) [2] [%]
COc1ccc(Br)c(CC2CCN(CCC3CCN(CCO)CC3)CC2)c1.Cl.Cl [Example 6, 2-(4-(2-(4-(2-Bromo-5-methoxybenzyl)-1-piperidinyl)ethyl)-1-piperidinyl)ethanol Dihydrochloride] | 87 | 71
CCN[C@H]1CC[C@H](CCN2CCC(Cc3cc(OC)ccc3Br)CC2)CC1.Cl.Cl [Example 38, trans-N-(4-(2-(4-(2-bromo-5-methoxybenzyl)-piperidin-1-yl)ethyl)cyclohexyl)-N-ethylamine Dihydrochloride] | 100 | 96
CO[C@H]1CC[C@H](CCN2CCC(Cc3cc(OC(C)C)ccc3Br)CC2)CC1.Cl [Example 44, trans-4-(2-Bromo-5-isopropoxybenzyl)-1-(2-(4-methoxycyclohexyl)ethyl)piperidine Hydrochloride] | 99 | 92
CCN([C@H]1CC[C@H](CCCN2CCC(Cc3cc(OC(C)C)ccc3Br)CC2)CC1)S(C)(=O)=O.Cl [Example 46, trans-N-(4-(3-(4-(2-bromo-5-isopropoxy-benzyl)piperidin-1-yl)propyl)cyclohexyl)-N-ethylmethanesulfonamide Hydrochloride] | 100 | 65
COc1ccc(Br)c(CC2CCN(CC[C@H]3CC[C@H](NS(=O)(=O)N(C)C)CC3)CC2)c1.Cl [Example 47, trans-N′-(4-(2-(4-(2-bromo-5-methoxybenzyl)-piperidin-1-yl)ethyl)cyclohexyl)-N,N-dimethylsulfamide hydrochloride] | 100 | 95
COc1ccc(Br)c(CC2CCN(CC[C@H]3CC[C@H](NC(=O)C(F)(F)F)CC3)CC2)c1.Cl [Example 48, trans-N-(4-(2-(4-(2-bromo-5-methoxybenzyl)-piperidin-1-yl)ethyl)cyclohexyl)-2,2,2-trifluoro-acetamide Hydrochloride] | 99 | 90
CCN(CC)[C@H]1CC[C@@H](CCCN2CCC(Cc3cc(OC)ccc3Br)CC2)CC1.Cl.Cl [Example 54, cis-N-(4-(3-(4-(2-bromo-5-methoxybenzyl)-piperidin-1-yl)propyl)cyclohexyl)-N,N-diethylamine Dihydrochloride] | 80 | 99
CCN(CCOC)[C@H]1CC[C@H](CCN2CCC(Cc3cc(OC)ccc3Br)CC2)CC1.Cl.Cl [Example 58, trans-N-(4-(2-(4-(2-bromo-5-methoxybenzyl)-piperidin-1-yl)ethyl)cyclohexyl)-N-ethyl-N-(2-methoxyethyl)amine Dihydrochloride] | 100 | 92
COc1ccc(Br)c(CC2CCN(CC[C@H]3CC[C@@H](CCO)CC3)CC2)c1.Cl [Example 64, cis-2-(4-(2-(4-(2-Bromo-5-methoxybenzyl)-piperidin-1-yl)ethyl)cyclohexyl)ethanol Hydrochloride] | 96 | 96
CC(C)Oc1ccc(Br)c(CC2CCN(CC3CCc4ccccc4N3)CC2)c1.Cl.Cl (centres unmarked) [Example 65, 2-((4-(2-Bromo-5-isopropoxybenzyl)piperidin-1-yl)methyl)-1,2,3,4-tetrahydroquinoline Dihydrochloride] | 97 | 60
Cl.Cl.Clc1ccc(Br)c(CC2CCN(CC3CCc4ccccc4N3)CC2)c1 (centres unmarked) [Example 67, 2-((4-(2-Bromo-5-chlorobenzyl)piperidin-1-yl)methyl)-1,2,3,4-tetrahydroquinoline Dihydrochloride] | 81 | 73
COc1ccc(Br)c(CC2CCN(CC3CCc4ccccc4N3)CC2)c1.Cl.Cl (centres unmarked) [Example 69, 2-((4-(2-Bromo-5-methoxybenzyl)piperidin-1-yl)methyl)-1,2,3,4-tetrahydroquinoline Dihydrochloride] | 95 | 96
COc1ccc(Br)c(CC2CCN(CC3CNc4ccccc4C3)CC2)c1.Cl.Cl (centres unmarked) [Example 70, 3-((4-(2-Bromo-5-methoxybenzyl)piperidin-1-yl)methyl)-1,2,3,4-tetrahydroquinoline Dihydrochloride] | 84 | 86
